Assay results taken from patent US10772911B2, “Cell free compositions for cellular restoration and methods of making and using same” (Advanced ReGen Medical Technologies, LLC, priority 2013, dated 2020).

Columns and labels:
Format in all cases: cell-based
senescence-related genes = test: quantitative PCR gene array of senescence-related genes; conditions: co-cultured in the presence of manumycin vs absence
Excerpt: (§1) Receiver cell samples (i.e., R1, R2, and R3) were individually paired with donor cell samples (i.e., D1, D2, and D3) and the pairs co-cultured in a transwell culture cell for four weeks. The morphology of the cells was studied at 2 weeks into the co-culture and at 4 weeks of co-culture. Gene expression arrays, protein arrays, and telomere length experiments compared freshly defrosted cells from the collection tubes (referred to as the baseline donor cell sample or baseline receiver cell sample) with cells at the 4-week study endpoint (referred to as restored cell samples).
(§2) Protein array analyses were carried out using conditioned media from the baseline donor cell sample or baseline receiver cell sample. The conditioned media was mixed with like cellular protein extracts and applied to the custom-designed arrays which consisted of antibody probes for 68 factors linked to cellular aging and senescence, collectively referred to as the senescence-associated secretory factors (SASF). Quantitative PCR gene array analyses were carried out by extracting RNA from the baseline samples or the co-cultured donor and receiver samples. The data presented represents the average metric determined for either the baseline donor cell sample, the baseline receiver cell sample, or the restored cell sample. […]

restored cells = test: cell morphology in transwell co-culture; conditions: co-cultured in the presence of 5 μM manumycin vs absence
Excerpt: as §1
The nature of the soluble particles passing through the permeable membrane in the transwell co-culture experiments was investigated. Specifically, transwell co-culture experiments were carried out in the presence or absence of manumycin. Manumycin, -[(1S,5S,6R)-5-hydroxy-5-[(1E,3E,5E)-7-[(2-hydroxy-5-oxo-1-cyclopenten-1-yl)amino]-7-oxo-1,3,5-heptatrien-1-yl]-2-oxo-7-oxabicyclo[4.1.0]hept-3-en-3-yl]-2E,4E,6R-trimethyl, 2,4-decadienamide, is an antibiotic that acts a potent and selective farnesytransferase inhibitor. Mannumycin is also known to inhibit the release of exosomes. […] Further support for the role of exosome/microvesicles in mediating the disclosed cellular restoration process is shown in FIG. 12.

[1] = system: senescence-associated secretory factors (SASF); test: protein array of senescence-associated secretory factors; conditions: co-cultured in the presence of manumycin vs absence; FIG. 11
Excerpt: as §1, §2

telomere length = telomere length of restored cell sample; conditions: pair R1-D1, presence vs absence of manumycin; FIG. 12
Excerpt: In an embodiment, the donor cell sample, receiver cell sample, or both are subjected to at least one analytical technique to characterize the quality of the cell sample. Herein, the “quality” of the cell sample refers to factors used to characterize the cellular health of the sample and includes parameters such as the number and types of cells present in the sample; the ratio of senescent to non-senescent cells in the sample; the extent of expression of a group of genetic and/or protein biomarkers; the average telomere length of the cells in the sample; and the status of the innate immune function of the cells in the sample. Telomere length may be determined using any suitable methodology, for example, terminal restriction fragment (TRF) analysis. Innate immune function may be evaluated using any suitable methodology such as the ^51Cr cytotoxicity release natural killer cell assay. The donor cell sample quality may be an assessment of the ability of the cells in the sample to improve and/or restore one or more cellular functions of the cells in the receiver cell sample.
Receiver cell samples (i.e., R1, R2, and R3) were individually paired with donor cell samples (i.e., D1, D2, and D3) and the pairs co-cultured in a transwell culture cell for four weeks. The morphology of the cells was studied at 2 weeks into the co-culture and at 4 weeks of co-culture. […]

CCCC[C@@H](C)/C=C(C)/C=C(\C)C(=O)NC1=C[C@@](O)(/C=C/C=C/C=C/C(=O)NC2=C(O)CCC2=O)[C@@H]2O[C@@H]2C1=O [manumycin, -[(1S,5S,6R)-5-hydroxy-5-[(1E,3E,5E)-7-[(2-hydroxy-5-oxo-1-cyclopenten-1-yl)amino]-7-oxo-1,3,5-heptatrien-1-yl]-2-oxo-7-oxabicyclo[4.1.0]hept-3-en-3-yl]-2E,4E,6R-trimethyl, 2,4-decadienamide]
gene expression of restored cell samples (senescence-related genes): did not display a change in expression levels similar to those observed in the absence of manumycin
morphology of restored cells (restored cells): less robust morphology
protein expression levels of restored cell samples [1]: elevated levels of all proteins investigated
telomere length of restored cell sample (telomere length): decreased
